Experimental data published in patent publication US11352354B2, “Substituted penta-fused hexa-heterocyclic compounds, preparation method therefor, drug combination and use thereof” (Xiamen University, priority 2017, dated 2022).

Columns and labels:
PIKfyve protein = PIKfyve protein (Homo sapiens (Human), UniProt Q9Y2I7); experiment: Dissociation equilibrium constant (Kd) of compound and PIKfyve protein, DiscoverX KINOMEscan; assay type: binding; conditions: eleven 3-fold dilutions, curve fitting
PIKfyve protein, sequence (Q9Y2I7 whole entry): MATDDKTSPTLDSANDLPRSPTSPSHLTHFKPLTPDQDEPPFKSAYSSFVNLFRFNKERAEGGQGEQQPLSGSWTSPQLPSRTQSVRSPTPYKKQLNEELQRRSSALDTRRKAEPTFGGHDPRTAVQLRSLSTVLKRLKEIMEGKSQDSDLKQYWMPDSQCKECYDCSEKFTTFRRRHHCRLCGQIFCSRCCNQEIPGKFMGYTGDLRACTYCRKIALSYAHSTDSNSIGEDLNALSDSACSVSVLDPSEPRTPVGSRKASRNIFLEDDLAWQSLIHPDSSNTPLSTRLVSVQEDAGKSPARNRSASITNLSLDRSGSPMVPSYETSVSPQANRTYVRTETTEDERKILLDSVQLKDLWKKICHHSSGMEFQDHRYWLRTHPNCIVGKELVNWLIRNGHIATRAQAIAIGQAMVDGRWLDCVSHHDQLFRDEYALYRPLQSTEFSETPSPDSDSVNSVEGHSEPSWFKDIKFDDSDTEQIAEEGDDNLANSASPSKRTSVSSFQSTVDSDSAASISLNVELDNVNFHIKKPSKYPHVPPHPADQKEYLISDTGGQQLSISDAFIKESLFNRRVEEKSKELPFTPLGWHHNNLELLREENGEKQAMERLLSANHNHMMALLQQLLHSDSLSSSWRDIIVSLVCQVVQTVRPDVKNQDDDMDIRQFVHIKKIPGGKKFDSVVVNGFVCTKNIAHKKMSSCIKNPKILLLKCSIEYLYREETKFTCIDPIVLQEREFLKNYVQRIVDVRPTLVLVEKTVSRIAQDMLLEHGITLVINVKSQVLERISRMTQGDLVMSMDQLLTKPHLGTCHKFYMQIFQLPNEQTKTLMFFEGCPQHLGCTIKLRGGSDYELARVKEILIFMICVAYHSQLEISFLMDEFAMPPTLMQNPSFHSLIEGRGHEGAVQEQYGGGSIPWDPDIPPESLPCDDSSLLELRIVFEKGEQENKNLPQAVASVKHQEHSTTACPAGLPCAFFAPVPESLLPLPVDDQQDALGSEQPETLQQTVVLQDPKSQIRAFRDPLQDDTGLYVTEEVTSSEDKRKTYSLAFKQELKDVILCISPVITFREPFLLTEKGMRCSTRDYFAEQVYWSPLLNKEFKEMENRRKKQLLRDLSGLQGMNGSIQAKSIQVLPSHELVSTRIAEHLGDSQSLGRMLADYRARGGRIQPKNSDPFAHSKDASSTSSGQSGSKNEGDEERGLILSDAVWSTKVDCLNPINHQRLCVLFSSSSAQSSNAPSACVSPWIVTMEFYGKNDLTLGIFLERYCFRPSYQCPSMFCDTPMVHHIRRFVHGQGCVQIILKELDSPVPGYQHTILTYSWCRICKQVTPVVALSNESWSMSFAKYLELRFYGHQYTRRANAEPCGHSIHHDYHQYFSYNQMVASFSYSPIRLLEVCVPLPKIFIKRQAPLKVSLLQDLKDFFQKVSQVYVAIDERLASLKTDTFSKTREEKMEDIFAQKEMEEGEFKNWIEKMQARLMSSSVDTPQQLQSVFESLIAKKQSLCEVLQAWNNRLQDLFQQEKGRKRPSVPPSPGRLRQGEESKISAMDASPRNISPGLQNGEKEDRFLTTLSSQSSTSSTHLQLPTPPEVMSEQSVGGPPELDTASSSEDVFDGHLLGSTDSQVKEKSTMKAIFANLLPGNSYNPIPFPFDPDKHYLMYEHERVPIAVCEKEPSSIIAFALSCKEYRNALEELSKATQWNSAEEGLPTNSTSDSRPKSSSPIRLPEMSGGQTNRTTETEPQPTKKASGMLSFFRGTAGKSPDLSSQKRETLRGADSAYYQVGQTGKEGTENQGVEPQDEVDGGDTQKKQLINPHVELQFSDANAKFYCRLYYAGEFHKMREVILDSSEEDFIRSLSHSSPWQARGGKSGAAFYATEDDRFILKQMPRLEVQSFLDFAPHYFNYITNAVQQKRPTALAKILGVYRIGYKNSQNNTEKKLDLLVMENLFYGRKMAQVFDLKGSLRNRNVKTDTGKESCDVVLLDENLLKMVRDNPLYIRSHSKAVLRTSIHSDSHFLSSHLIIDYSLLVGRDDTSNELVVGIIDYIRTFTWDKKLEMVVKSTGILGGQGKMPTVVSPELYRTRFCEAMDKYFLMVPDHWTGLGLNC
Experimental: II. Determination of Dissociation Equilibrium Constant (Kd Value) of Compound and PIKfyve Protein
The Kd value was determined by DiscoverX's KINOMEscan™ technology according to the following steps:
1. Preparation of magnetic beads: biotin-labeled small molecule ligand and avidin-coated magnetic beads were allowed to interact at room temperature for 30 minutes, and then added with excess biotin, followed by washing with a blocking solution (1% BSA, 0.05% Tween 20, 1 mM DTT) to remove unbound ligand.
2. Binding reaction: in a 384 plate, 0.02 mL system, DNA-labeled protein, small molecule ligand-bound magnetic beads, and different concentrations of compound to be tested were mixed in a reaction solution (0.17×PBS, 0.05% Tween 20, 6 mM DTT) at room temperature with shaking for 1 hr, to which was added an eluant (1×PBS, 0.05% Tween 20) for elution. Magnetic beads were resuspended by an eluant (1×PBS, 0.05% Tween 20, 0.5 μM non-biotin-labeled small molecule ligand), and shaken at room temperature for 30 min before separating out the eluant.
3. Determination of Kd value: the content of protein in the above eluate was determined by qPCR. Eleven 3-fold dilution concentrations were determined for the compound to be tested, with 3 DMSO controls for each concentration, and the Kd value was obtained by curve fitting.

JeKo-1 cells = experiment: Tumor cell growth inhibition by MTS method, JeKo-1; assay type: cell-based; conditions: Homo sapiens, JeKo-1, 120 h, 5 days of culture; for inhibition at 10 µM: read-out: cell growth inhibition rate of compounds at 10 μM
Experimental: III. Determination of IC50 Value of Compound for Inhibiting Tumor Cell Growth by MTS Method
1. Cell plating: cells in logarithmic growth phase were counted and inoculated in a 96-well plate (20000 cells per well).
2. Administrating agent to cell: 10 mM compound mother solution in DMSO was subjected to 3 fold-gradient dilution, to set 8 concentrations, which were then added to various wells, with three replicates for each concentration, and three blank wells (only culture medium) and three negative controls (containing 0.1% DMSO) on each plate.
3. […] The OD value at 490 nm was measured with microplate reader OD490. The cell growth inhibition rate was calculated by the following formula: Cell growth inhibition rate %=1−(ODexperimental group−ODblank group)/(ODnegative group−ODblank group)×100%
The semi-inhibitory concentration IC50 of the compound acting on cell growth was calculated using GradPad Prism 5 software according to the measured cell growth inhibition rate.
In the following table it lists the IC50 value or the inhibition rates of some compounds at 10 μM against JeKo-1 cells

MDA-MB-231 cells = experiment: Vacuolation of MDA-MB-231 cells caused by inhibition of compounds on PIKfyve (microscopy); assay type: cell-based; conditions: MDA-MB-231 cells
Text: I. Determination of Vacuolation of MDA-MB-231 Cells Caused by Inhibition of Compounds on PIKfyve
When the activity of pikfyve kinase is inhibited, vacuoles will be produced in cytoplasm. By observing the number of vacuoles under a microscope, the ability of compounds to inhibit the activity of pikfyve kinase can be known.
1. Cell plating: cells in logarithmic growth phase were made into a single cell suspension, counted with a cell counter and diluted to a cell concentration of about 2×10^5/mL. Then, the cells were inoculated into a 12-well plate, and cultured in a 37° C., 5% CO2 incubator.
3. Vacuolation test: after 24 and 48 hours of culture, photos were taken under an […] to observe the degree of vacuolation.
(In the table, “+” represents the degree of vacuolation; more “+” indicates more obvious vacuolation; “−” represents no vacuolation)

SMILES | Kd (PIKfyve protein) | IC50 (JeKo-1 cells) | degree of vacuolation, 1 μM, 24 h (MDA-MB-231 cells) | degree of vacuolation, 1 μM, 48 h (MDA-MB-231 cells) | degree of vacuolation, 10 μM, 24 h (MDA-MB-231 cells) | degree of vacuolation, 10 μM, 48 h (MDA-MB-231 cells) | inhibition at 10 µM (JeKo-1 cells)
Cc1ccc(NC(=O)c2cccc(C(F)(F)F)c2)cc1Nc1nc(-c2cccs2)c2[nH]ccc2n1 [V-c-43] | > 30 µM |  |  |  |  |  | 
COc1ccc(C(F)(F)F)cc1NC(=O)c1ccc(C)c(Nc2nc(-c3ccccc3)c3[nH]ccc3n2)c1 [V-c-51] | > 30 µM |  |  |  |  |  | 
Cc1ccc(C(=O)Nc2cccc(OC(F)(F)F)c2)cc1Nc1nc(-c2ccco2)c2[nH]ccc2n1 [V-c-62] | > 30 µM |  |  |  |  |  | 
Cc1ccc(C(=O)Nc2cccc(OC(F)(F)F)c2)cc1Nc1nc(-c2ccccc2)c2[nH]ccc2n1 [V-c-61] | > 30 µM |  |  |  |  |  | 
Cc1ccc(C(=O)Nc2cccc(C(F)(F)F)c2)cc1Nc1nc(-c2cccnc2)nc2c1ncn2C [IV-b-2] |  | 7.12 µM | + | + | + | + | 
Cc1ccc(C(=O)Nc2cccc(C(F)(F)F)c2)cc1Nc1nc(-c2cccnc2)nc2cc[nH]c12 [V-a-5] |  | 3.08 µM | +++ | +++ | ++ | ++ | 
Cc1ccc(NC(=O)c2cccc(C(F)(F)F)c2)cc1Nc1nc(-c2cccnc2)nc2[nH]ccc12 [II-a-1] |  |  |  | + |  | + | 17.3%
Cc1ccc(NC(=O)c2cccc(C(F)(F)F)c2)cc1Nc1nc(-c2cccnc2)nc2c1ncn2C [IV-b-7] |  |  | + | + | + | + | 19.1%
Cc1ccc(NC(=O)c2cccc(C(F)(F)F)c2)cc1Nc1nc(-c2cccnc2)nc2c1cnn2C [III-b-10] |  | 1.88 µM | − | + | − | + | 
Cc1ccc(C(=O)Nc2cccc(C(F)(F)F)c2)cc1Nc1nc(-c2ccncc2)nc2[nH]ccc12 [II-a-4] |  |  | − | − | + | + | 18.7%
O=C(Nc1cccc(C(F)(F)F)c1)c1cccc(Nc2cc(-c3ccncc3)nc3sccc23)c1 [VIII-a-6] |  | 6.32 µM | + | + | + | + | 
Cc1ccc(NC(=O)c2cccc(C(F)(F)F)c2)cc1Nc1nc(-c2ccccc2)c2[nH]ccc2n1 [V-c-41] | > 30 µM |  |  |  |  |  | 
Cc1ccc(C(=O)Nc2cccc(C(F)(F)F)c2)cc1Nc1nc(-c2cccnc2)nc2c1cnn2C [III-b-1] |  | 0.939 µM | + | ++ | + | ++ | 
O=C(Nc1cccc(Nc2cc(-c3cccnc3)nc3sccc23)c1)c1cccc(C(F)(F)F)c1 [VIII-a-1] |  | 2.71 µM | ++ | ++ | ++ | ++ | 
Cc1ccc(C(=O)Nc2ccc(CN3CCN(C)CC3)c(C(F)(F)F)c2)cc1Nc1cc(-c2ccncc2)nc2[nH]ccc12 [I-a-25] |  | 2.13 µM | + | + | + | + | 
Cc1ccc(NC(=O)c2cccc(C(F)(F)F)c2)cc1Nc1nc(-c2cccnc2)nc2ccn(C)c12 [V-b-1] |  |  | ++ | ++ | ++ | ++ | 12.3%

SMILES | Kd (PIKfyve protein) | IC50 (JeKo-1 cells) | degree of vacuolation, 1 μM, 24 h (MDA-MB-231 cells) | degree of vacuolation, 1 μM, 48 h (MDA-MB-231 cells) | degree of vacuolation, 10 μM, 24 h (MDA-MB-231 cells) | degree of vacuolation, 10 μM, 48 h (MDA-MB-231 cells) | inhibition at 10 µM (JeKo-1 cells)
Cc1ccc(C(=O)Nc2cccc(OC(F)(F)F)c2)cc1Nc1nc(-c2cccs2)c2[nH]ccc2n1 [V-c-63] | > 30 µM |  |  |  |  |  | 
Cn1ncc2c(NCc3cccnc3)nc(-c3cccc(NC(=S)Nc4cccc(C(F)(F)F)c4)c3)nc21 [III-b-15] |  |  | − | − | + | + | 24.1%
COc1ccc(C(F)(F)F)cc1NC(=O)c1ccc(C)c(Nc2nc(-c3cccs3)c3[nH]ccc3n2)c1 [V-c-53] | > 30 µM |  |  |  |  |  | 
Cc1ccc(C(=O)Nc2cccc(C(F)(F)F)c2)cc1Nc1nc(-c2cccnc2)nc2[nH]cnc12 [IV-a-3] |  |  |  | + |  | + | 16.2%
Cc1ccc(NC(=O)c2cccc(C(F)(F)F)c2)cc1Nc1cc(-c2ccncc2)nc2sccc12 [VIII-a-4] |  |  | + | + | + | + | 17.3%
Cc1ccc(C(=O)Nc2cccc(C(F)(F)F)c2)cc1Nc1nc(-c2cccnc2)nc2[nH]ccc12 [II-a-2] |  |  | + | + | + | + | 43.4%
Cc1ccc(Nc2nc(-c3cccc(NC(=O)c4ccc(N)nc4)c3)nc3ccsc23)nc1 [VII-a-17] |  | 1.15 µM | − | − | − | − | 
Cc1ccc(NC(=O)c2cccc(C(F)(F)F)c2)cc1Nc1nc(-c2ccco2)c2[nH]ccc2n1 [V-c-42] | > 30 µM |  |  |  |  |  | 
Cc1ccc(NC(=O)c2cccc(C(F)(F)F)c2)cc1Nc1cc(-c2ccncc2)c2cc[nH]c2n1 [I-c-11] |  | 6.13 µM | ++ | ++ | ++ | ++ | 
Cc1ccc(NC(=O)c2cccc(C(F)(F)F)c2)cc1Nc1nc(-c2cccnc2)cn2c(C)cnc12 [VI-b-7] |  |  | − | − | + | + | 16.5%
Cc1ccc(NC(=O)c2cccc(C(F)(F)F)c2)cc1Nc1nc(-c2cccnc2)nc2[nH]cnc12 [IV-a-1] |  |  | + | ++ | + | ++ | 18.3%
Cc1ccc(Nc2nc(-c3cccc(NC(=O)c4cccc(C(F)(F)F)c4)c3)nc3ccsc23)cn1 [VII-a-15] |  | 2.67 µM | + | + | + | + | 
Cc1ccc(C(=O)Nc2cccc(C(F)(F)F)c2)cc1Nc1cc(-c2cccnc2)nc2sccc12 [VIII-a-7] |  | 3.17 µM | ++ | ++ | +++ | +++ | 
COc1ccc(C(F)(F)F)cc1NC(=O)c1ccc(C)c(Nc2nc(-c3ccco3)c3[nH]ccc3n2)c1 [V-c-52] | > 30 µM |  |  |  |  |  | 
Cc1ccc(NC(=O)c2cccc(C(F)(F)F)c2)cc1Nc1cc(-c2cccnc2)c2cc[nH]c2n1 [I-c-12] |  | 1.1 µM | +++ | +++ | +++ | +++ | 
Cc1ccc(C(=O)Nc2cccc(C(F)(F)F)c2)cc1Nc1nc(-c2ccncc2)nc2ccn(C)c12 [V-b-4] |  |  | ++ | ++ | ++ | ++ | 17.2%
